Species: Rattus norvegicus
Experiment: Open TG-GATES - Regimen: Single
Assay type: toxicity, organism-based, Sprague-Dawley
Parameters: regimen Single, gender Male, age 6 weeks
Conditions: in vivo, po, route gavage; for APTT / Bas / Eos / Fbg / Hb / Ht / Lym / MCH / MCHC / MCV / Mono / Neu / PT / Plat / RBC / Ret / WBC: tissue Blood; for KIDNEY_L / KIDNEY_R / KIDNEY_TOTAL: tissue Kidney; for LIVER: tissue Liver; for A/G / ALP / ALT / AST / BUN / CRE / Ca / Cl / DBIL / GLC / IP / K / LDH / Na / PL / RALB / TBIL / TC / TG / TP / gamma-GTP: tissue Plasma
[1] = 50 mg/kg, 3 h, dose level Middle
[2] = 50 mg/kg, 6 h, dose level Middle
[3] = 50 mg/kg, 9 h, dose level Middle
[4] = 50 mg/kg, 24 h, dose level Middle
[5] = 150 mg/kg, 3 h, dose level High
[6] = 150 mg/kg, 6 h, dose level High
[7] = 150 mg/kg, 9 h, dose level High
[8] = 150 mg/kg, 24 h, dose level High

## S=C=Nc1cccc2ccccc12 [1-NAPHTHYLISOTHIOCYANATE]
[1]
  TERMINAL_BW: 223.2 g
  APTT: 18.3 s
  Bas: 0.2%
  Eos: 1%
  Fbg: 237 mg/dL
  Hb: 13.7 g/dL
  Ht: 38.1%
  Lym: 76.6%
  MCH: 21.4 pg
  MCHC: 35.9%
  MCV: 59.7 fL
  Mono: 2.6%
  Neu: 18.8%
  PT: 11.6 s
  Plat: 118.2 x10_4/uL
  RBC: 639.2 x10_4/ul
  Ret: 8%
  WBC: 87.7 x10_2/uL
  KIDNEY_L: 0.9 g
  KIDNEY_R: 1 g
  KIDNEY_TOTAL: 1.9 g
  LIVER: 9.8 g
  A/G: 1.7
  ALP: 1022.2 IU/L
  ALT: 45 IU/L
  AST: 80.2 IU/L
  BUN: 9.6 mg/dL
  CRE: 0.4 mg/dL
  Ca: 10.8 mg/dL
  Cl: 102.8 meq/L
  DBIL: 0.1 mg/dL
  GLC: 240.6 mg/dL
  IP: 10.1 mg/dL
  K: 3.9 meq/L
  LDH: 179.8 IU/L
  Na: 141.4 meq/L
  PL: 154.2 mg/dL
  RALB: 3.6 g/dL
  TBIL: 0.1 mg/dL
  TC: 85.2 mg/dL
  TG: 77.4 mg/dL
  TP: 5.7 g/dL
  gamma-GTP: 0.8 IU/L
[2]
  TERMINAL_BW: 220.8 g
  APTT: 19.2 s
  Bas: 0%
  Eos: 0.4%
  Fbg: 239.8 mg/dL
  Hb: 13.9 g/dL
  Ht: 38.9%
  Lym: 79.2%
  MCH: 21.3 pg
  MCHC: 35.6%
  MCV: 59.8 fL
  Mono: 2.2%
  Neu: 17%
  PT: 12 s
  Plat: 126.8 x10_4/uL
  RBC: 651.4 x10_4/ul
  Ret: 7%
  WBC: 80.1 x10_2/uL
  KIDNEY_L: 1 g
  KIDNEY_R: 1 g
  KIDNEY_TOTAL: 1.9 g
  LIVER: 9.3 g
  A/G: 1.5
  ALP: 936.2 IU/L
  ALT: 36.6 IU/L
  AST: 72.8 IU/L
  BUN: 8.6 mg/dL
  CRE: 0.4 mg/dL
  Ca: 10.6 mg/dL
  Cl: 101.8 meq/L
  DBIL: 0.2 mg/dL
  GLC: 321.6 mg/dL
  IP: 10.2 mg/dL
  K: 4.2 meq/L
  LDH: 208 IU/L
  Na: 140.2 meq/L
  PL: 153.8 mg/dL
  RALB: 3.5 g/dL
  TBIL: 0.2 mg/dL
  TC: 84.6 mg/dL
  TG: 69.8 mg/dL
  TP: 5.8 g/dL
  gamma-GTP: 1 IU/L
[3]
  TERMINAL_BW: 214.5 g
  APTT: 17.9 s
  Bas: 0%
  Eos: 0.6%
  Fbg: 254 mg/dL
  Hb: 13.7 g/dL
  Ht: 38.2%
  Lym: 76.8%
  MCH: 22.3 pg
  MCHC: 35.9%
  MCV: 62 fL
  Mono: 2.2%
  Neu: 19.2%
  PT: 12 s
  Plat: 133.4 x10_4/uL
  RBC: 615.6 x10_4/ul
  Ret: 7.2%
  WBC: 80 x10_2/uL
  KIDNEY_L: 0.9 g
  KIDNEY_R: 0.9 g
  KIDNEY_TOTAL: 1.8 g
  LIVER: 8.8 g
  A/G: 1.6
  ALP: 826 IU/L
  ALT: 34.2 IU/L
  AST: 60 IU/L
  BUN: 10 mg/dL
  CRE: 0.4 mg/dL
  Ca: 10.7 mg/dL
  Cl: 102 meq/L
  DBIL: 0.2 mg/dL
  GLC: 321.8 mg/dL
  IP: 10 mg/dL
  K: 4.3 meq/L
  LDH: 150.4 IU/L
  Na: 141.2 meq/L
  PL: 147.8 mg/dL
  RALB: 3.5 g/dL
  TBIL: 0.2 mg/dL
  TC: 79.8 mg/dL
  TG: 72 mg/dL
  TP: 5.8 g/dL
  gamma-GTP: 1.2 IU/L
[4]
  TERMINAL_BW: 214.8 g
  APTT: 19.7 s
  Bas: 0.6%
  Eos: 0.4%
  Fbg: 357 mg/dL
  Hb: 14.3 g/dL
  Ht: 37.9%
  Lym: 48%
  MCH: 22.4 pg
  MCHC: 37.7%
  MCV: 59.2 fL
  Mono: 4.6%
  Neu: 44.6%
  PT: 12.2 s
  Plat: 131.9 x10_4/uL
  RBC: 639.6 x10_4/ul
  Ret: 6%
  WBC: 118.9 x10_2/uL
  KIDNEY_L: 1 g
  KIDNEY_R: 1 g
  KIDNEY_TOTAL: 2 g
  LIVER: 9.2 g
  A/G: 1.3
  ALP: 1257.2 IU/L
  ALT: 153.8 IU/L
  AST: 366.6 IU/L
  BUN: 10.4 mg/dL
  CRE: 0.4 mg/dL
  Ca: 10.4 mg/dL
  Cl: 98 meq/L
  DBIL: 0.9 mg/dL
  GLC: 177.6 mg/dL
  IP: 8.6 mg/dL
  K: 3.5 meq/L
  LDH: 617.6 IU/L
  Na: 141.4 meq/L
  PL: 218.2 mg/dL
  RALB: 3.2 g/dL
  TBIL: 1.1 mg/dL
  TC: 107 mg/dL
  TG: 64.8 mg/dL
  TP: 5.7 g/dL
  gamma-GTP: 6.2 IU/L
[5]
  TERMINAL_BW: 222.9 g
  APTT: 17.4 s
  Bas: 0.2%
  Eos: 0.8%
  Fbg: 243 mg/dL
  Hb: 13.9 g/dL
  Ht: 38.6%
  Lym: 77.8%
  MCH: 22.3 pg
  MCHC: 36%
  MCV: 61.8 fL
  Mono: 2.4%
  Neu: 18.2%
  PT: 11.8 s
  Plat: 124.6 x10_4/uL
  RBC: 626.2 x10_4/ul
  Ret: 8.3%
  WBC: 70.9 x10_2/uL
  KIDNEY_L: 0.9 g
  KIDNEY_R: 0.9 g
  KIDNEY_TOTAL: 1.9 g
  LIVER: 9.6 g
  A/G: 1.6
  ALP: 1056 IU/L
  ALT: 43 IU/L
  AST: 69.6 IU/L
  BUN: 9.2 mg/dL
  CRE: 0.4 mg/dL
  Ca: 10.9 mg/dL
  Cl: 103 meq/L
  DBIL: 0.2 mg/dL
  GLC: 314.6 mg/dL
  IP: 11.1 mg/dL
  K: 3.9 meq/L
  LDH: 205.6 IU/L
  Na: 141.4 meq/L
  PL: 142.2 mg/dL
  RALB: 3.5 g/dL
  TBIL: 0.2 mg/dL
  TC: 78.6 mg/dL
  TG: 77.6 mg/dL
  TP: 5.7 g/dL
  gamma-GTP: 1 IU/L
[6]
  TERMINAL_BW: 220.5 g
  APTT: 19.3 s
  Bas: 0.4%
  Eos: 0.6%
  Fbg: 247.2 mg/dL
  Hb: 14.3 g/dL
  Ht: 40.2%
  Lym: 80.6%
  MCH: 21.5 pg
  MCHC: 35.6%
  MCV: 60.3 fL
  Mono: 2.4%
  Neu: 15.4%
  PT: 12.1 s
  Plat: 127.2 x10_4/uL
  RBC: 668 x10_4/ul
  Ret: 7.4%
  WBC: 75.2 x10_2/uL
  KIDNEY_L: 0.9 g
  KIDNEY_R: 0.9 g
  KIDNEY_TOTAL: 1.9 g
  LIVER: 9 g
  A/G: 1.5
  ALP: 846.6 IU/L
  ALT: 40.4 IU/L
  AST: 71.4 IU/L
  BUN: 10 mg/dL
  CRE: 0.4 mg/dL
  Ca: 10.7 mg/dL
  Cl: 101.2 meq/L
  DBIL: 0.3 mg/dL
  GLC: 371.2 mg/dL
  IP: 10.4 mg/dL
  K: 4.4 meq/L
  LDH: 188.4 IU/L
  Na: 141 meq/L
  PL: 149.2 mg/dL
  RALB: 3.6 g/dL
  TBIL: 0.2 mg/dL
  TC: 85 mg/dL
  TG: 55.4 mg/dL
  TP: 5.9 g/dL
  gamma-GTP: 1.2 IU/L
[7]
  TERMINAL_BW: 219.4 g
  APTT: 19.1 s
  Bas: 0.4%
  Eos: 0.6%
  Fbg: 251.8 mg/dL
  Hb: 14.3 g/dL
  Ht: 40.2%
  Lym: 77.6%
  MCH: 21.9 pg
  MCHC: 35.7%
  MCV: 61.4 fL
  Mono: 3%
  Neu: 18.4%
  PT: 12.1 s
  Plat: 126.7 x10_4/uL
  RBC: 655.2 x10_4/ul
  Ret: 7.1%
  WBC: 81.9 x10_2/uL
  KIDNEY_L: 1 g
  KIDNEY_R: 0.9 g
  KIDNEY_TOTAL: 1.9 g
  LIVER: 8.7 g
  A/G: 1.5
  ALP: 968.6 IU/L
  ALT: 40 IU/L
  AST: 63.8 IU/L
  BUN: 10.2 mg/dL
  CRE: 0.4 mg/dL
  Ca: 10.8 mg/dL
  Cl: 101.8 meq/L
  DBIL: 0.3 mg/dL
  GLC: 352.4 mg/dL
  IP: 10.4 mg/dL
  K: 4.5 meq/L
  LDH: 186.8 IU/L
  Na: 140.8 meq/L
  PL: 151.4 mg/dL
  RALB: 3.6 g/dL
  TBIL: 0.2 mg/dL
  TC: 83.4 mg/dL
  TG: 35.6 mg/dL
  TP: 5.9 g/dL
  gamma-GTP: 1 IU/L
[8]
  TERMINAL_BW: 214.2 g
  APTT: 21.2 s
  Bas: 0.6%
  Eos: 0.2%
  Fbg: 392.4 mg/dL
  Hb: 14.7 g/dL
  Ht: 38.5%
  Lym: 43%
  MCH: 21.6 pg
  MCHC: 38.2%
  MCV: 56.4 fL
  Mono: 5.6%
  Neu: 49.6%
  PT: 12.8 s
  Plat: 145.8 x10_4/uL
  RBC: 682.8 x10_4/ul
  Ret: 6%
  WBC: 79 x10_2/uL
  KIDNEY_L: 0.9 g
  KIDNEY_R: 0.9 g
  KIDNEY_TOTAL: 1.9 g
  LIVER: 8.6 g
  A/G: 1.3
  ALP: 1505.2 IU/L
  ALT: 131.6 IU/L
  AST: 349.2 IU/L
  BUN: 11.2 mg/dL
  CRE: 0.5 mg/dL
  Ca: 10.4 mg/dL
  Cl: 96.8 meq/L
  DBIL: 1.5 mg/dL
  GLC: 190.8 mg/dL
  IP: 9.2 mg/dL
  K: 3.8 meq/L
  LDH: 601.8 IU/L
  Na: 142.2 meq/L
  PL: 268 mg/dL
  RALB: 3.3 g/dL
  TBIL: 1.7 mg/dL
  TC: 129.6 mg/dL
  TG: 64.2 mg/dL
  TP: 5.8 g/dL
  gamma-GTP: 7.4 IU/L

Reference: ChEMBL document CHEMBL3885861, “Open TG-GATES”
